“Also recorded” adds a separate entry of the source.
What was measured:
[1] = test system: Ishikawa human endometrium carcinoma cell line; assay: Inhibition of colony formation (dose-survival), Example 18; assay type: cell-based; details: for Inhibition of colony formation: 30 to 50 μM
Text: (§1) Human cell lines used in in vitro experiments. MCF-7 human mammary tumour cell line was stabilized in 1973 by Soule et al. from the pleural fluid of mammary carcinoma patients. The cells grow in monolayer and are epithelial in their character. MDA-MB-231 human mammary carcinoma cell line was isolated and stabilized in 1974 by Cailleau et al. similarly from pleural fluid. These cells also grow in monolayer. PC3 human prostate carcinoma cell line was stabilized 20 in 1979 in cell culture by Kaighn et al.; the cells are of simple epithelium type and form compact colonies in clonogenic assays. Ishikawa cell line originated from adenocarcinoma of human endometrium [Nishida et al.: Obstet. Gynecol. Jpn, 37, 25 1103-1111 (1985)], has epithelial character and contains steroid as well as GnRH receptors. Human tumour cell lines are maintained in plastic flasks (Greiner) in Dulbecco-6modified Eagle-MEM (DMEM GIBCO) nutritive medium. The medium used herein contained 10% of fetal calf serum (FCS).
(§2) In the case of cytostatics the cell-damaging effect is not cell-specific. […] One part of the arrested cells again go into the cycle, the other part may perish (apoptosis). […] The investigations were carried out on MCF-7 and MDA-MB-231 human mammary carcinoma cell lines, PC3 human prostate 15 carcinoma cell line and Ishikawa human endometrium carcinoma cell line. Threehundred cells were set into Petri dishes of 3.5 cm in diameter each. The treatment was carried out once, 24 hours following the explantation, then the colonies formed were counted after 9 to 12 days.

[2] = test system: MCF-7 human mammary carcinoma cell line; assay: as above; assay type: cell-based; details: 50 μM
Text: as §1, §2

[3] = test system: MDA-MB-231 human mammary carcinoma cell line; assay: as above; assay type: cell-based; details: 50 μM
Text: as §1, §2

[4] = test system: PC3 human prostate carcinoma cell line; assay: as above; assay type: cell-based; details: for Inhibition of colony formation: 30 to 50 μM
Text: as §1, §2

[5] = test system: MCF-7 human mammary carcinoma cells; assay: In vitro inhibition of cell proliferation (cell count), Example 19; assay type: cell-based; details: 30 μM of active substance, conjugate, treated once, cell count on 7th day
Description: (§3) The procedure of treatment was as follows. After trypsinization the cells, 400,000 cells of MCF-7, MDA-MB-231 human mammary carcinoma, PC3 human prostate carcinoma or Ishikawa human endometrium tumour each were passed into Petri dishes of 10 cm in diameter. Starting from the day following transfer, the cells were treated with the substances to be tested in solution prepared with the nutrient medium during the exponential growth phase. The cultures were treated with 1 to 50 μM (calculated for the total volume of the culture) of MI-1544 GnRH antagonist, MI-1892 chicken GnRH antagonist or SJ-1004 GnRH […] on the 7th day.

[6] = test system: MDA-MB-231 human mammary carcinoma cells; assay: as above; assay type: cell-based; details: 30 μM of active substance, conjugate, treated once, cell count on 7th day
Description: as §3

[7] = test system: Ishikawa human endometrium tumour cells; details: 30 μM of active substance, conjugate, treated once
Text: The procedure of treatment was as follows. After trypsinization the cells, 400,000 cells of MCF-7, MDA-MB-231 human mammary carcinoma, PC3 human prostate carcinoma or Ishikawa human endometrium tumour each were passed into Petri dishes of 10 cm in diameter. […]

[8] = test system: PC3 human prostate carcinoma cells; assay: In vitro inhibition of cell proliferation (cell count), Example 19; assay type: cell-based; details: 30 μM of active substance, conjugate, treated once
Description: The procedure of treatment was as follows. After trypsinization the cells, 400,000 cells of MCF-7, MDA-MB-231 human mammary carcinoma, PC3 human prostate carcinoma or Ishikawa human endometrium tumour each were passed into Petri dishes of 10 cm in diameter. Starting from the day following transfer, the cells were treated with the substances to be tested in solution prepared with the nutrient medium during the exponential growth phase. […]

MCF-7 xenograft = assay: In vivo antitumour effect on MCF-7 xenograft; parameters: species or system immunosuppressed CBA/Ca mice; details: for Influence on the rate of tumour growth: first study, conjugates 150 μg in every 3rd day, P-GFLG-OH daily s.c. corresponding to 50 μg
Description: (§4) The immunosuppression of mice was carried out by using the method of Steel et al. (1978).
(§5) CBA/Ca female mice of about 6 weeks old were thymectomized and then, after one week, they were irradiated with 60Co (whole body irradiation; the lethal dose is 9.5 Gray). Within 24 hours 3 to 5×10^5 myelocytes were injected to the animals. Beneath the skin of the immunosuppressed mice 2×10^7 tumour cells or, in the case of later passages, about 2 mm^3 of tumour cells or in the case of later, additional passages about 2 mm^3 of tumour pieces were implanted. […] The treatment with steroid hormone was stopped by at least one week before beginning the investigation.
In the case of MCF-7 tumours (xenografts) the examinations were carried out with passages being in the phase of the 37th and 38th, respectively, transplantations.
In the case of mice bearing MCF-7 xenograft, the treatment was begun in the 4th week following xeno-transplantation.
(§6) Recent investigations have begun on 28 animals bearing MCF-7 xenograft .and on 28 animals bearing MDA-MB-231 xenograft. On animals bearing MCF-7 tumour the treatment was commenced in the 5th week following xeno-transplantation; the tumour volume was 205 to 225 mm^3. On animals bearing MDA-MB-231 tumour, the treatment was started in the 4th week after xeno-transplantation with a tumour volume of 140 to 150 mm^3. […] The control groups were daily treated with physiological saline s.c. (Each treated group consisted of 7 animals.)

MDA-MB-231 xenograft = assay: In vivo antitumour effect on MDA-MB-231 xenograft; parameters: species or system immunosuppressed CBA/Ca mice; details: for Animals from 7 treated that became tumour-free: 6th week of treatment, 100 μg daily s.c.; for Tumour-free animals: end of the 6th week, first series
Description: as §4, §5, §6
A more recent study was started on 28 animals bearing. MDA-MB-231 xenograft. The treatment was begun in the 4th or 5th week following xenotransplantation. The tumour volume was 0.165 to 0.194 cm3. […] (For treatment of the control group, see the preceding Examples). Each group consisted of 7 animals.

[9] = Castration effect: uterus weight of xenograft-bearing animals; assay type: in vivo, mice
[10] = test system: MCF-7 human mammary carcinoma cell line; assay: Inhibition of colony formation (dose-survival), Example 48; assay type: cell-based; details: 10 μM
Text: MCF-7 human mammary carcinoma cell line was stabilized in 1973 by Soule et al. from the pleural fluid of a patient suffering from mammary carcinoma. MDA-MB-231 human mammary carcinoma cell line was isolated and stabilized by Cailleau et al. in 1974 similarly from pleural fluid. Both cell lines grow in monolayer. […] MCF-7 cell line is estradiol receptor (ER)-positive containing proteins specifically binding GnRH. Thus, it represents, a useful model system for investigating the direct effect of GnRH mediated by the GnRH receptor. Being ER-negative and GnRH receptor-positive, MDA-MB-231 cell line is similarly suitable to study the direct effect of GnRH. PC3 human prostate carcinoma cell line was stabilized in cell culture by Kaighn et al. in 1979. The cells are of epithelial type and form compact colonies in clonogenic assays. The Ishikawa cell line originates from human endometrial adenocarcinoma [M. Nishida et al.: Acta Obstet. Gynecol. Jpn. 37, 1103-1111 (1985)], it is epithelial in its character and contains steroid-as well as GnRH receptors. The examination gives accurate information about the cell-damaging effect of the substance tested as a function of varying doses. The treatment was carried out once; the colonies formed from the surviving cells were counted after 8-12 days. […] A part of the arrested cells again entered the cycle, an other part of them might be destroyed (apoptosis). […] The treatment was once carried out 24 hours after setting, then the colonies formed were counted after 8-12 days. The cells were treated once after 24 hours with 1-50 μM of various GnRH analogues of Examples above or with 1-50 μM of GnRH-III, respectively. The percentages of inhibition obtained on MCF-7, MDA-MB-231, PC3 and Ishikawa cells, respectively, together with the dose of the active agent used are shown in Table VIII.

MXT mouse mammary tumour = assay: In vivo antitumour effect on MXT mouse mammary tumour; parameters: species or system CBA/Ca mice; details: 75 μg/day/animal s.c.; day 17
Description: The MXT mouse mammary carcinoma contains ER and PgR proteins; furthermore, it contains also GnRH receptors; therefore, this in vivo tumor model is suitable for studying both the direct and indirect effects. The treatment of mice bearing MXT mammary tumour was commenced on the day following transplantation. […] The animals were daily treated in s.c. route starting from the day following transplantation of MXT mouse mammary tumour. […] MI-1544: 75 μg/day/animal; MI-1892: 75 μg/day/animal.

B-lymphocytes = assay: Humoral immune response (antibody production of B-lymphocytes); assay type: in vivo, mice; details: dose not stated
T-lymphocytes = assay: Cellular immune response (rosette formation against BRBC antigen); assay type: in vivo, mice; details: dose not stated
Text: The immunosuppressive side effect of cytostatics used in tumour therapy is commonly known. This effect can be compensated to a certain grade by various immunostimulants (endotoxin, levamisole). Polypeptides with much […] molecular weights (about 40,000 to 80,000) are also capable of protecting against immunosuppressive effect [Gal et al.: J. Biol. Resp. Modif. 5, 148-159 (1986)). The molecular weight of the novel polyanionic P-GFLG-OH macromolecule tested by us is about 10,000, that of MI-1892 is about 2000, i.e. relatively low; therefore, their immunostimulatory activity was unexpected.

ovulation of female rats = assay: Ovulation / cycle of female rats during treatment for three cycles; assay type: in vivo, rat; details: high dose of the coupled GnRH-III; three cycles observed
Text: In 1993, researchers isolated and synthesized the Lamprey-III-GnRH decapeptide from lamprey (Petromyzon marinus) (p[…]NH2).
On comparison to healthy individuals, the functioning of the protective mechanism (immunostatus) of patients suffering from tumour is more unfavourable. Since the protective (immune) mechanism is enhanced by the compound, its tumour-inhibiting action can more strongly become valid. […] This effect may particularly be preferred on young patients suffering from mammary tumour, where a castration would cause psychic disturbances. In a way different from other conjugates, P-GFLG-GnRH-III gradually induces an inhibition of continually increasing grade during the long-lasting treatment for 7 weeks; and at the end of treatment, tumour-free animals are observed whereas in the case of other conjugates the degree of inhibition increases only up to the fifth week of treatment, then a stagnation in the grade of inhibition can be observed.

[11] = animals bearing MCF-7 xenografts, treatment for four weeks
[12] = animals bearing MDA-MB-231 xenografts, treatment for twelve weeks

Substance	Inhibition of colony formation [1] [%]	Inhibition of colony formation [4] [%]	% Inhibition of cell division [5] [%]	% Inhibition of cell division [6] [%]	% Inhibition of cell division [7] [%]	% Inhibition of cell division [8] [%]	Inhibition % (MCF-7 xenograft; 1 × 50 μg, week 2) [%]	Influence on the rate of tumour growth (MCF-7 xenograft)	Animals from 7 treated that became tumour-free (MDA-MB-231 xenograft)	Tumour-free animals (MDA-MB-231 xenograft)	Decrease of uterus weight [9, 11] [%]	Decrease of uterus weight [9, 12] [%]	other results
Ac-D-Trp1,3,D-Cpa2,{D-Lys[n-poly-(N-vinylpyrrolidone-co-maleic acid)-Gly-Phe-Leu-Gly]}6. D-Ala10-GnRH [P-GFLG-1544]	100	100	58	45	95	68.5	30	not influenced	1	A tumour-free animal was found	42	50	% Inhibition of colony formation [2]: 100%; % Inhibition of colony formation [3]: 100%; % Inhibition of colony formation ([4]; 10 μM): 100%; % Inhibition of colony formation ([4]; 50 μM): 100%; Inhibition % (MCF-7 xenograft; 1 × 50 μg, week 6): 49%; Tumour volume as control (%) (MCF-7 xenograft; 1 × 50 μg, week 6): 51%; Tumour-free animals (MCF-7 xenograft; repeated study, 6th week): a tumour-free animal was found; Tumour volume (MDA-MB-231 xenograft; 1 × 50 μg daily s.c., week 2): 0.21 cm3; Tumour volume (MDA-MB-231 xenograft; 1 × 50 μg daily s.c., week 3): 0.24 cm3; Tumour volume as control (%) (MDA-MB-231 xenograft; 1 × 50 μg daily s.c., week 3): 66%; Tumour volume (MDA-MB-231 xenograft; 1 × 50 μg daily s.c., week 6): 0.36 cm3; Tumour volume as control (%) (MDA-MB-231 xenograft; 1 × 100 μg daily s.c., week 3): 65%; % Inhibition of colony formation [10]: 15%
Ac-D-Trp^1,3,D-Cpa^2,{Lys[n-poly(N-vinyl pyrrolidone-co-maleic acid)-Gly-Phe-Leu-Gly-]}5, [a-Asp(DEA)]6, D-Ala10-GnRH [P-GFLG-1892]	100	100	45	42	91	51	30	not influenced		A tumour-free animal was found	39	20	% Inhibition of colony formation ([1]; 30 μM): 100%; Tumour volume (MDA-MB-231 xenograft; 1 × 75 μg daily s.c., week 6): 0.33 cm3; Tumour volume as control (%) (MXT mouse mammary tumour): 36%; Effect on the humoral immune response (B-lymphocytes): strengthened; also recorded: immunostimulatory effect; Effect on the cellular immune response (activity of T-lymphocytes against BRBC antigen) (T-lymphocytes): increased; also recorded: twofold
{Lys[n-poly(N-vinylpyrrolidone-co-maleic acid)-Gly-Phe-Leu-Gly-]}8,-GnRH-III [P-GFLG-GnRH-III]									2				Tumour volume (MDA-MB-231 xenograft; 1 × 100 μg daily s.c., week 6): 0.40 cm3; Influence on the cycle of female rats (castration effect) (ovulation of female rats): not influenced
